System: RAW-Blue cells
Experiment: NF-κB transcriptional response in RAW-Blue reporter cells
Assay type: cell-based, mouse
Details: 1 µM, 18 h, with or without NOD2 antagonist SG84 10 µM
From the text: Given that cells of the monocyte-macrophage lineage are among the primary responders to NOD2 stimuli,[28] we also examined the effect of 40 on the NF-κB transcriptional response in RAW-Blue reporter cells. These cells, which, similarly to the HEK-Blue cells described above, stably express an NF-κB-inducible SEAP reporter gene, are derived from RAW264.7 mouse macrophages, which in addition to NOD2 also express NOD1 and most Toll-like receptors (TLRs).
Figure S4. NF-kB transcriptional response in the RAW-Blue mouse macrophage reporter cell line. […] Statistical significance was determined by one-way ANOVA followed by Bonferroni’s multiple comparisons test; ***, p < 0.001 versus vehicle-treated control; ###, p < 0.001 versus MDP, 40, or LPS alone; ns, not significant. […]
RAW-Blue cells were seeded (100,000 cells/well) in 96 -well plates in 200 µL growth medium (without Normocin and Zeocin) and treated with MDP (1 µM) or 40 (1 µM), in the presence or absence of LPS ( 10 ng/mL), or the corresponding vehicle (0.1% DMSO). […] After 2 h of incubation (37 °C), SEAP activity was determined spectrophotometrically as absorbance at 630 nm (BioTek Synergy microplate reader; Winooski, VT, USA). […]
Cytokine production was determined with BD Cytometric Bead Array human inflammatory cytokines kit […]

Question: For `CCOC(=O)CC[C@@H](NC(=O)[C@@H](NC(=O)CNC(=O)/C=C/c1ccc(OC(=O)CC23CC4CC(CC(C4)C2)C3)c(OC)c1)C(C)C)C(=O)OCC` [Compound 40], which “activation of RAW-Blue cells (NF-κB transcriptional response)” value is on record?
Answer: The value was “activate RAW-Blue cells in a NOD2-dependent manner”.

Reference: paper PMC9377006, “Discovery of Desmuramylpeptide NOD2 Agonists with Single-Digit Nanomolar Potency” (ACS Medicinal Chemistry Letters, 2022)
